biological target: Genome polyprotein (Hepatitis C virus genotype 1a (isolate H77), UniProt P27958); test: Continuous Spectrophotometric Assay; conditions: not given
Description: Proteolytic cleavage of the ester linkage between the Nva (L-norvaline) and the chromophore (PAP) was monitored for change in absorbance at 370 nm. Initial velocities were determined using linear regression and kinetic constants were obtained by fitting the data to the Michaelis-Menten equation.

Chain of Genome polyprotein (P27958 1027-1657 limits assumed): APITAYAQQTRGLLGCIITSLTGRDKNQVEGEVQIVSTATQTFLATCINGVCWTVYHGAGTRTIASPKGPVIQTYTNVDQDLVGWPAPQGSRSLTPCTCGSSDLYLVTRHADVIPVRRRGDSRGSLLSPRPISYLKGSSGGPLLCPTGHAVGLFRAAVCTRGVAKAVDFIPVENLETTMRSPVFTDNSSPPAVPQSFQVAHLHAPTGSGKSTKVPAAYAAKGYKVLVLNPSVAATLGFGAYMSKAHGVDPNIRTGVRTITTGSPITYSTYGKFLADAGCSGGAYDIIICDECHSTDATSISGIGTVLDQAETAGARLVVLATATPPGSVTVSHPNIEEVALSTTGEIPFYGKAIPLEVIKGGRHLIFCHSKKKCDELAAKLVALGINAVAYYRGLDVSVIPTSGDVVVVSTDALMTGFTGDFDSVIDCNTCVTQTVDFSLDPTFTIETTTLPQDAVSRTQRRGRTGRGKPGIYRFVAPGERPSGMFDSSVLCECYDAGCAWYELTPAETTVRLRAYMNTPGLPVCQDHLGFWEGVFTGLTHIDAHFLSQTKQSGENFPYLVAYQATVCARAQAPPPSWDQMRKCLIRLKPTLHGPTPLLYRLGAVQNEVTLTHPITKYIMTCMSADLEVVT

Row | Ki [µM] | SMILES
1 | 0.036 | CCCC(NC(=O)[C@@H]1C[C@@H]2CN1C(=O)[C@H](C1CCCCC1)NC(=O)Cc1cccc(c1)OCCCN2S(=O)(=O)c1ccccc1)C(=O)C(=O)NCC(=O)N[C@H](C(=O)N(C)C)c1ccccc1 (stereo partly drawn) [3-{[(7R,9S,12S)-6-(benzenesulfonyl)-12-cyclohexyl-11,14-dioxo-2-oxa-6,10,13-triazatricyclo[14.3.1.1^{7,10}]henicosa-1(20),16,18-trien-9-yl]formamido}-N-({[(S)-(dimethylcarbamoyl)(phenyl)methyl]carbamoyl}methyl)-2-oxohexanamide]
2 | 3.3 | CCCC(NC(=O)[C@@H]1C[C@@H]2CN1C(=O)[C@H](C1CCCCC1)NC(=O)Cc1cccc(c1)OCCCS2(=O)=O)C(=O)C(=O)NCC(=O)N[C@H](C(=O)N(C)C)c1ccccc1 (stereo partly drawn) [(2S)-({N-[3-({[(7R,9S,12S)-12-cyclohexyl-6,6-dioxido-11,14-dioxo-2-oxa-6-thia-10,13-diazatricyclo[14.3.1.17,10]henicosa-1(20),16,18-trien-9-yl]carbonyl}amino)-2-oxohexanoyl]glycyl}amino)(phenyl)acetic acid N,N-dimethyl amide]

same assay, conditions: pH 6.5; 30 °C

Row | SMILES | Ki [µM]
3 | CCCC(NC(=O)[C@@H]1C[C@@H]2CN1C(=O)[C@H](C1CCCCC1)NC(=O)Cc1cccc(c1)OCCCCO2)C(=O)C(=O)NCC(=O)N[C@H](C(=O)N(C)C)c1ccccc1 (stereo partly drawn) [3-{[(5S,8S,10R)-5-cyclohexyl-3,6-dioxo-11,16-dioxa-4,7-diazatricyclo[15.3.1.1^{7,10}]docosa-1(20),17(21),18-trien-8-yl]formamido}-N-({[(S)-(dimethylcarbamoyl)(phenyl)methyl]carbamoyl}methyl)-2-oxohexanamide] | 0.007
4 | CCCC(NC(=O)[C@@H]1C[C@@H]2CN1C(=O)[C@H](C1CCCCC1)NC(=O)Cc1cccc(c1)OCCO2)C(=O)C(=O)NCC(=O)N[C@H](C(=O)N(C)C)c1ccccc1 (stereo partly drawn) [3-{[(6R,8S,11S)-11-cyclohexyl-10,13-dioxo-2,5-dioxa-9,12-diazatricyclo[13.3.1.1^{6,9}]icosa-1(19),15,17-trien-8-yl]formamido}-N-({[(S)-(dimethylcarbamoyl)(phenyl)methyl]carbamoyl}methyl)-2-oxohexanamide] | 0.03
5 | CCCC(NC(=O)[C@@H]1C[C@@H]2CN1C(=O)[C@H](C1CCCCC1)NC(=O)Cc1cccc(c1)OCCCS2)C(=O)C(=O)NCC(=O)N[C@H](C(=O)N(C)C)c1ccccc1 (stereo partly drawn) [(2S)-({N-[3-({[(7R,9S,12S)-12-cyclohexyl-11,14-dioxo-2-oxa-6-thia-10,13-diazatricyclo[14.3.1.17,10]henicosa-1(20),16,18-trien-9-yl]carbonyl}amino)-2-oxohexanoyl]glycyl}amino)(phenyl)acetic acid N,N-dimethyl amide] | 0.01
6 | CCC[C@H](NC(=O)[C@@H]1C[C@@H]2CN1C(=O)[C@H](C(C)(C)C)NC(=O)Cc1cccc(c1)OCCCO2)C(=O)C(=O)NCC(=O)N[C@H](C(=O)N(C)C)c1ccccc1 [(2S)-({N-[(3S)-3-({[(7R,9S,12S)-12-tert-butyl-11,14-dioxo-2,6-dioxa-10,13-diazatricyclo[14.3.1.17,10]henicosa-1(20),16,18-trien-9-yl]carbonyl}amino)-2-oxohexanoyl]glycyl}amino)(phenyl)acetic acid N,N-dimethyl amide] | 0.015
7 | CCC[C@H](NC(=O)[C@@H]1C[C@H]2CN1C(=O)[C@H](C(C)(C)C)NC(=O)Cc1cccc(c1)OCCCO2)C(=O)C(=O)NCC(=O)N[C@H](C(=O)N(C)C)c1ccccc1 [(2S)-({N-[(3S)-3-({[(7S,9S,12S)-12-tert-butyl-11,14-dioxo-2,6-dioxa-10,13-diazatricyclo[14.3.1.17,10]henicosa-1(20),16,18-trien-9-yl]carbonyl}amino)-2-oxohexanoyl]glycyl}amino)(phenyl)acetic acid N,N-dimethyl amide] | 0.13

From BindingDB's records for doi:10.1021/jm050820s (Schering-Plough Research Institute, 2006)
